Patent US9181290B2, “Inhibition of biofilm formation by 1,2,3,4,6-penta-O-galloyl-D-glucopyranose” (CHANG GUNG UNIVERSITY, priority 2011, dated 2015)
Entries after “also recorded” stand apart in the source; their conditions may differ.

Tests used:
[1] = test system: human epithelial and fibroblast cells; assay: Toxicity to human cells (summary statement); assay type: cell-based; settings: concentrations below 50 μM
Procedure: Human HepG2 cells (ATCC HB-8065) and 293T cells (ATCC CRL-11268) were cultured in Dulbecco's modified Eagle's medium (DMEM) supplemented with 10% (v/v) fetal calf serum. Human MRC-5 cells (ATCC CCL171) and HEp-2 cells (ATCC CCL-23) were cultured in Eagle's minimum essential medium (MEM) supplemented with 10% fetal calf serum. These four human cell lines were seeded into 24-well polystyrene tissue culture plates at a cell density of 1×10^5 cells/500 μL medium per well, respectively. After incubation at 37° C. for 24 hrs, β-PGG was added into each well in various amounts (0, 6.25, 12.5, 25 and 50 μM). After 24 hr treatment of β-PGG, toxicity of β-PGG to these human cell lines was determined using the 3-(4,5-dimethylthiazol-2-yl)-2,5-diphenyltetrazolium bromide (MTT) method (Xiangshu Piao et al. (2008), supra). Additionally, toxicity of β-PGG to the 293T cells was also determined in medium containing 0% and 2% fetal calf serum. Cells treated with DMSO were used as a negative control.

[2] = test system: S. aureus clinical strain SA130 (MRSA); assay: Growth (A578) and biofilm (A595) in polystyrene plates; assay type: cell-based, Staphylococcus aureus; settings: 12.5 μM β-PGG, 6 hr
Procedure: (§1) An overnight bacterial culture was 200-fold diluted with TSBg, and a 200 μL aliquot of the diluted culture was seeded into each well of 96-well polystyrene microtiter plates and incubated at 37° C. for a designated period of time. Cell growth was determined by measuring the absorbance at 578 nm (A578) with a microtiter plate reader (SpectraMax 340, Molecular Devices). After washing with PBS twice to remove suspended cells, the wells were stained with 0.1% (w/v) crystal violet in 10% ethanol and then treated with 30% acetic acid in dH2O, followed by detecting the absorbance at 595 nm (A595) with the microtiter plate reader to quantify the amount of biofilm formed on polystyrene surface.

[3] = test system: S. aureus clinical strain SAChu (MRSA); assay: as above; assay type: cell-based, Staphylococcus aureus; settings: 12.5 μM β-PGG, 6 hr
Procedure: as §1

[4] = test system: S. aureus clinical strain SA703 (MRSA); assay: as above; assay type: cell-based, Staphylococcus aureus; settings: 12.5 μM β-PGG, 6 hr
Procedure: as §1

[5] = test system: S. aureus clinical strain SA13 (MSSA); assay: as above; assay type: cell-based, Staphylococcus aureus; settings: 12.5 μM β-PGG, 6 hr
Procedure: as §1

[6] = test system: S. aureus clinical strain SA285 (MSSA); assay: as above; assay type: cell-based, Staphylococcus aureus; settings: 12.5 μM β-PGG, 6 hr
Procedure: as §1

[7] = test system: S. aureus clinical strain SA288 (MSSA); assay: as above; assay type: cell-based, Staphylococcus aureus; settings: 12.5 μM β-PGG, 6 hr
Procedure: as §1

[8] = test system: S. aureus clinical strain SA435 (MRSA); assay: as above; assay type: cell-based, Staphylococcus aureus; settings: 12.5 μM β-PGG, 6 hr
Procedure: as §1

[9] = test system: S. aureus clinical strain SA44 (MRSA); assay: as above; assay type: cell-based, Staphylococcus aureus; settings: 12.5 μM β-PGG, 6 hr
Procedure: as §1

[10] = test system: S. aureus clinical strain SA41 (MSSA); assay: as above; assay type: cell-based, Staphylococcus aureus; settings: 12.5 μM β-PGG, 6 hr
Procedure: as §1

[11] = test system: S. aureus clinical strain SA486 (MRSA); assay: as above; assay type: cell-based, Staphylococcus aureus; settings: 12.5 μM β-PGG, 6 hr
Procedure: as §1

[12] = test system: S. aureus clinical strain SA33 (MSSA); assay: as above; assay type: cell-based, Staphylococcus aureus; settings: 12.5 μM β-PGG, 6 hr
Procedure: as §1

[13] = test system: S. aureus clinical strain SA289 (MSSA); assay: as above; assay type: cell-based, Staphylococcus aureus; settings: 12.5 μM β-PGG, 6 hr
Procedure: as §1

[14] = test system: Enterococcus faecalis; assay: Anti-biofilm activity (data not shown); assay type: cell-based

## O=C(OC[C@H]1O[C@@H](OC(=O)c2cc(O)c(O)c(O)c2)[C@H](OC(=O)c2cc(O)c(O)c(O)c2)[C@@H](OC(=O)c2cc(O)c(O)c(O)c2)[C@@H]1OC(=O)c1cc(O)c(O)c(O)c1)c1cc(O)c(O)c(O)c1 [β-PGG, 1,2,3,4,6-penta-O-galloyl-β-D-glucopyranose]
[1]
  toxicity to human epithelial and fibroblast cells: lacks toxicity; also recorded: not toxic
[2]; 0 μM: 0.61 ± 0.12
  Growth (A578): 0.62 ± 0.17
[2]; 0 μM: 3.05 ± 0.10
  Biofilm (A595): 0.32 ± 0.04
[3]; 0 μM: 0.56 ± 0.02
  Growth (A578): 0.52 ± 0.04
[3]; 0 μM: 8.06 ± 0.10
  Biofilm (A595): 0.77 ± 0.11
[4]; 0 μM: 0.74 ± 0.10
  Growth (A578): 0.70 ± 0.07
[4]; 0 μM: 2.33 ± 0.02
  Biofilm (A595): 0.88 ± 0.07
[5]; 0 μM: 0.69 ± 0.09
  Growth (A578): 0.67 ± 0.06
[5]; 0 μM: 0.98 ± 0.13
  Biofilm (A595): 0.12 ± 0.04
[6]; 0 μM: 0.56 ± 0.09
  Growth (A578): 0.46 ± 0.03
[6]; 0 μM: 0.86 ± 0.09
  Biofilm (A595): 0.16 ± 0.02
[7]; 0 μM: 0.55 ± 0.01
  Growth (A578): 0.50 ± 0.01
[7]; 0 μM: 0.83 ± 0.02
  Biofilm (A595): 0.10 ± 0.01
[8]; 0 μM: 0.64 ± 0.10
  Growth (A578): 0.67 ± 0.09
[8]; 0 μM: 0.97 ± 0.09
  Biofilm (A595): 0.46 ± 0.06
[9]; 0 μM: 0.66 ± 0.08
  Growth (A578): 0.64 ± 0.04
[9]; 0 μM: 1.33 ± 0.01
  Biofilm (A595): 0.46 ± 0.01
[10]; 0 μM: 0.65 ± 0.02
  Growth (A578): 0.61 ± 0.05
[10]; 0 μM: 1.67 ± 0.27
  Biofilm (A595): 0.36 ± 0.05
[11]; 0 μM: 0.76 ± 0.08
  Growth (A578): 0.65 ± 0.02
[11]; 0 μM: 1.94 ± 0.19
  Biofilm (A595): 0.26 ± 0.07
[12]; 0 μM: 0.79 ± 0.01
  Growth (A578): 0.79 ± 0.04
[12]; 0 μM: 0.80 ± 0.07
  Biofilm (A595): 0.13 ± 0.03
[13]; 0 μM: 0.77 ± 0.02
  Growth (A578): 0.72 ± 0.07
[13]; 0 μM: 1.16 ± 0.01
  Biofilm (A595): 0.35 ± 0.01
[14]
  anti-biofilm activity: potent to mild anti-biofilm activity
